Drawing on a melting point compilation (Tetko et al.; mined from patent text by program, amines drawn as free bases though some values may be those of a salt), this text covers melting point for 89 compounds.

A word on the melting point: it is the temperature, or range, at which the solid turns liquid.

For `CN(CC(=O)[C@H](Cc1ccccc1)NC(=O)N1CCCCC1)C(=O)N1CCC[C@H]1C(=O)O`, the melting point was in the range of 69 to 72 °C. Regarding `Cc1ccc(N2C(=O)C(O)=C(C(=O)c3ccc(C(C)C)cc3)C2c2ccc(N3CCN(C)CC3)cc2)nn1` (centres undefined), the melting point was 198 to 203 °C.

The compound `COC(=O)C(C)(N)Cc1c[nH]c2ccc(OCC3CC3)cc12` (racemic) returned a melting point of 172 °C.

`CC1(C)CC(=O)C=C(Nc2ccccc2Cl)C1`: the melting point was in the range of 150 to 152 °C. Compound `CS(=O)(=O)N1CCN([C@](O)(CNC(=O)c2ccc(OCC#CCO)cc2)C(N)=O)CC1` gave a melting point of 162 °C.

Compound `CN1CCC(C2c3ccccc3C=Cc3ccc(Br)cc32)CC1` (single isomer, unassigned; (+)) showed a melting point of 178 to 180 °C. As for `Oc1cc2ccc(CCCCCl)cc2cc1O`, the melting point was 54 to 59 °C.

With `CN(C)C=Nc1ccc(-c2ccc(Cl)cc2)cn1`, the melting point was 125 °C. Consider `Cc1cccc2c1ncn2Cc1oc2ccccc2c(=O)c1-c1ccccc1`, for which the melting point lay in the range of 204 to 208 °C. `CCCCCCCCCCCCCCCCCCOc1cc(OCCCBr)cc(C(=O)OCc2ccccc2)c1` displayed a melting point of 57 to 58 °C. `O=C(CCCCCl)c1ccccc1` showed a melting point of 49 to 50 °C. As for `Cc1cccc2nnc(-c3ccccc3)c(O)c12`, the melting point is 215 to 217 °C. As for `Cc1c(C#N)c(-c2ccc(C#N)cc2)c(C)n1Cc1ccc(Cl)c(CO)c1`, the melting point turned out to be 189 °C.

`Cc1ccc(Cl)cc1NC(=O)OC(C)(C)C` showed a melting point of 100 to 102 °C. Consider `Cc1ncc([N+](=O)[O-])cc1Nc1nccc(-c2ccccc2)n1`, for which the melting point stood at 133 °C.

Take `NNCCCCS(=O)(=O)O`: the melting point was 152 to 154 °C. In the case of `Cn1ccc(-c2ccc(C(=O)O)c(Cl)c2)n1`, the melting point lay within 232 to 233 °C.

Consider `COc1ccc(C(O)Cc2c(Cl)cncc2Cl)cc1OC1CCCC1` (centres undefined), for which the melting point fell in the range of 124 to 125 °C. `CCn1cc(C(=O)O)c(=O)c2cc(F)c(N3CCN(O)CC3)c(F)c21`: the melting point lay in the range of 253 to 260 °C.

`C=CCC(NC(=O)c1ccc(OC)cc1)C(=O)OCC` (centres undefined) displayed a melting point of 76 to 78 °C.

With `O=C1OC(P(=O)(O)C2OC(=O)c3ccccc32)c2ccccc21` (centres undefined), the melting point was in the range of 280 to 285 °C.

Take `O=C(Nc1ccc(Cl)cc1)n1cc(F)c(=O)[nH]c1=O`: the melting point is over 260 °C.

Compound `CN(C)S(=O)(=O)c1cc2c(O)cccc2o1` yielded a melting point of 150 to 153 °C. `NNC1CCC(c2ccccc2F)c2cc(Cl)ccc2N1` (centres undefined) yielded a melting point of 213 to 215 °C. Compound `CCOC(=O)c1nc2scc(COCc3ccc(C#N)cc3)c2c(=O)[nH]1` registered a melting point of 236 to 237 °C.

`Cn1nc(-c2cc([N+](=O)[O-])cc([N+](=O)[O-])c2)cc1O` came in with a melting point of 230 to 231 °C. With `CC1=C(O)C(=O)c2ccccc2C1=O`, the melting point was 173 to 174 °C.

In turn, `Fc1ccc2[nH]c3c(c2c1)CN(CCCc1cccnc1)CC3` had a melting point of 215 to 218 °C. For the compound `O=c1c2c(Cl)cc(Cl)cc2n(Cc2ccccc2)c(=O)n1Cc1ccc(F)cc1`, the melting point was in the range of 148 to 151 °C.

For the compound `Cc1ccc2c(c1)N(CC(=O)NC(C)(C)C)C(=O)C(Br)CC2c1ccccc1C` (centres undefined), the melting point was in the range of 219 to 221 °C. The figure for `COC(=O)C1=C(C(=O)OC)c2c(sc3ccccc23)CC1` is 129 °C; for `Cc1cc(Nc2ccccc2)nc(-n2nc(C)cc2C)n1` it is 134 to 139 °C; for `C=CCC(C#N)(C#N)Cc1ccc(Cl)c(Cl)c1` it is 71.8 °C.

The compound `COC(=O)C1=C(C)NC(=O)N(C)C1c1cccc([N+](=O)[O-])c1` (centres undefined) registered a melting point of 217 to 219 °C. In turn, `O=C(/C=C/c1ccc2c(c1)OCCO2)CC(=O)/C=C/c1ccc2c(c1)OCCO2` returned a melting point of 184 to 187 °C. As for `CC(=O)CCC1CCC2C(C=CC3=CCCc4c3n2c2ccncc42)C1` (centres undefined), the melting point was determined as 102 °C. The figure for `COC(=O)c1cccc(Nc2nccc(-c3ccnc(NCCCO)c3)n2)c1` is 162 to 163 °C.

For `CCOC(=O)C(=CC=CN(CC)CCO)S(=O)(=O)c1ccccc1`, the melting point was 107 °C. Then `CCn1c(=O)c2[nH]c(/C=C/c3ccc(C(F)(F)F)cc3)nc2n(CC)c1=O`, with over 280 °C; and `CC1=C(Cc2ccc(-c3ccc(N(C)C)cc3)cc2)C(=O)c2ccccc2C1=O`, with 170 to 171 °C. For `Cc1nnc(-c2ccc3occc3c2)o1`, the melting point lay within 159 to 160 °C.

As for `Oc1cccc(-c2ncc3ncc(Cl)cc3n2)c1`, the melting point is 252 to 253 °C. On to `CC(=O)Oc1ccc(C(=O)CN(CCNC(=O)Cc2ccccc2)Cc2ccccc2)cc1OC(C)=O`, for which the melting point lay within 140 to 145 °C. With `CC(Oc1cc(Oc2ccc(C(F)(F)F)cc2Cl)ccc1C#N)C(N)=O` (centres undefined), the melting point was in the range of 134 to 137 °C. Take `CC(C)(C)CN1C(=O)CC(=O)N(c2ccccc2Cl)c2cc(Cl)ccc21`: the melting point was 245 to 246 °C. The compound `O=c1ncc(Cl)cn1CC(O)CCl` (centres undefined) yielded a melting point of 159 to 162 °C.

The compound `CC1CN(N)C(=O)N1C` (centres undefined) yielded a melting point of 162 to 164 °C. In turn, `CN1C(=O)Nc2c(Cl)cc(Cl)cc2C12NC(=O)NC2=O` (centres undefined) returned a melting point of over 280 °C. Compound `O=C(OCc1ccccc1)N1C=CC(c2cccc(Cl)c2Cl)C=C1` registered a melting point of 69 to 70 °C.

In turn, `OCCOc1nc(N2CCCCC2)c2nc(OCCO)nc(N3CCCCC3)c2n1` registered a melting point of 148 to 150 °C. The compound `COc1ccc(C(=O)Nc2ccc(-c3ccc(C=O)cc3C)c(C)c2)cc1CCCN(C)C` returned a melting point of 63 to 66 °C. For the compound `O=C1CCCc2c1ccn2S(=O)(=O)c1ccccc1`, the melting point fell in the range of 108 to 110 °C. The compound `c1ccc(-c2ccc(-c3cn([C@H]4CN5CCC4CC5)nn3)s2)cc1` had a melting point of 184 °C. In turn, `COCCCNC(=O)c1ccc(C(=O)N2CCN(c3ncccc3NC(C)C)CC2)nc1` gave a melting point of 95 to 96 °C.

As for `CC(C)c1nn(-c2nc3ccccc3s2)c(-c2ccc(F)cc2)c1C=CC1CC(O)CC(=O)O1` (centres undefined), the melting point fell in the range of 168 to 170 °C. The compound `CC(C)[C@@H](Cc1ccc(C(C)(C)C)cc1)C(=O)N1C(=O)OC[C@H]1Cc1ccccc1` had a melting point of 124 °C. The figure for `CC[C@H](C(N)=O)N1CCCC1=O` is 115 to 117 °C; for `Cc1cccc(-n2ccc(=O)c(-c3ccnn3-c3ccccc3)n2)c1` it is 115 to 116 °C. `COP(=O)(Cc1ccc(NC(=O)/C=C/c2cnn(C)c2-c2ccc(F)cc2)cc1)OC` registered a melting point of 209 to 210 °C.

`CC1(CC(=O)O)OCCC2=C1Cc1ccccc12` (centres undefined) showed a melting point of 179 to 180 °C.

As to `CCOC(=O)Cc1ccc(C(=O)c2ccc([N+](=O)[O-])cc2)n1C`, the melting point lay within 103 to 106 °C. Compound `CCOC(=O)c1cc(NC(=O)C(Cc2cscn2)NC(=O)OC(C)(C)C)c[nH]1` (centres undefined) registered a melting point of 217 to 220 °C. Then `CC(=O)Nc1cccc(-c2ccc3nncn3n2)c1`, with 248 to 250 °C. For the compound `CCCCN1CCN(Cc2ccc(COc3cccc4c3CN(C3CCC(=O)NC3=O)C4=O)cc2)CC1=O` (centres undefined), the melting point lay in the range of 138 to 140 °C. Take `O=c1oc2ccccc2c(O)c1[C@@H]1C[C@@H](c2ccc(OCc3ccc(C(F)(F)F)cc3)cc2)Cc2ccccc21` (relative stereo): the melting point was 153 to 155 °C.

Turning to `CCNC(=O)c1ccc(-n2nnc(C(=O)NC3CC3)c2CCCCCF)cc1`, the melting point came to 150 °C.

Consider `CCCc1nc2c(N)nc3ccc(-c4cccc(NS(C)(=O)=O)c4)cc3c2s1`, for which the melting point was in the range of 244 to 246 °C. Then `CCOC(=O)c1ccc(OCC2CCN(C(=O)OC(C)(C)C)CC2)c(OC)c1`, with 81 to 83 °C; and `Cc1cc(O)c(SCCC(C)C)c(=O)o1`, with 81 to 82 °C.

The compound `COC(=O)c1ccc(-c2nc3c(O)cccc3s2)cc1` displayed a melting point of 215 to 219 °C. `CC(C)(Cc1c[nH]c2ccccc12)NC[C@H](O)CO` had a melting point of 77 to 77.8 °C. `O=C(Nc1ccc(C(=O)N2CCc3cn[nH]c3-c3ncccc32)cc1)c1ccccc1-c1ccccc1` gave a melting point of 250 to 251 °C. `CCOC(=O)Cc1cnc(-c2cc3cccc(N(C)S(=O)(=O)c4cccs4)c3[nH]2)s1` registered a melting point of 126 to 127 °C.

In turn, `CCOC(=O)CCCCc1ccc2c(c1)C[C@@H](NC(=O)OC(C)(C)C)CC2` yielded a melting point of 65 to 67 °C. In turn, `O=C1C(c2cc3c(cc2O)OCCCO3)c2ccccc2N1C(c1ccccc1)c1ccccc1` (centres undefined) displayed a melting point of 193 to 195 °C. The compound `COc1cc(-c2ccccc2F)c(Cl)cc1C(=O)N1Cc2cccn2Cc2ccccc21` gave a melting point of 192 to 194 °C. Then `Cc1c(NC(=O)C(CSC(=O)Cc2cccs2)Cc2ccccc2)cccc1C(=O)O` (centres undefined), with 134 to 137 °C; and `CCCc1nc2c(N)nc3ccc(-c4ccc(CO)cc4)cc3c2s1`, with 212 to 214 °C; and `CC(C#Cc1cccc(Oc2ccsc2)c1)N(O)C(N)=O` (centres undefined), with 93 to 95 °C. For `Cc1cc(SCc2ccc(OCc3ccc(C(C)(C)C)cc3)cc2)ccc1OCC(=O)O`, the melting point is 135 to 137 °C. As to `CCCCCc1c(/C=C/C(=O)OC)sc2cc(OC)ccc12`, the melting point was 49 to 50 °C.

Regarding `Cc1ccc(-n2ccc3c(OCC(C)(C)C)nn(C)c(=O)c32)c(C)c1`, the melting point lay within 146 to 147 °C.

For `O=C(Nc1cn[nH]c1-c1ccc(F)cc1)c1c(F)cccc1F`, the melting point worked out at 112 °C. For the compound `c1ccc(OCCSCc2ncc(-c3ccc(OCCCN4CCCCCC4)cc3)o2)cc1`, the melting point fell in the range of 32 to 35 °C. Consider `COC(=O)[C@@H]1COC(c2ncn3c2CN(C)C(=O)c2sccc2-3)=N1`, for which the melting point lay in the range of 215 to 217 °C. Take `CCCc1nc2cc3c(cc2[nH]1)NC(=O)C3(C)C`: the melting point lay within 284 to 285 °C. For `COc1c(Cl)ccc(-c2cc(N)c(Cl)c(C(=O)NOCc3ccc(C)cc3)n2)c1F`, the melting point fell in the range of 171 to 174 °C.

The compound `CCCCN(C(=O)C(C)C)c1nnc(C)s1` showed a melting point of 54 to 57 °C. For `C=Cc1cc(O[Si](C)(C)C(C)(C)C)cc2nc(-c3ccc(O[Si](C)(C)C(C)(C)C)c(F)c3)oc12`, the melting point lay within 93 to 95 °C.
